Reference: ChEMBL document CHEMBL3826881, “Evaluation of bisbenzamidines as inhibitors for matriptase-2” (Bioorg Med Chem Lett, 2016)
One block for each compound: values may come before it.

Legend:
[1] = target: T1, Transmembrane protease serine 6 (Homo sapiens) (UniProt Q8IU80); assay: Inhibition of human matriptase-2 transfected in HEK cells assessed as residual activity at 40 uM using Boc-Gln-Ala-Arg-AMC as substrate after 20 mins by fluorimetric analysis; format: cell-based; settings: HEK293
T1 sequence (whole entry): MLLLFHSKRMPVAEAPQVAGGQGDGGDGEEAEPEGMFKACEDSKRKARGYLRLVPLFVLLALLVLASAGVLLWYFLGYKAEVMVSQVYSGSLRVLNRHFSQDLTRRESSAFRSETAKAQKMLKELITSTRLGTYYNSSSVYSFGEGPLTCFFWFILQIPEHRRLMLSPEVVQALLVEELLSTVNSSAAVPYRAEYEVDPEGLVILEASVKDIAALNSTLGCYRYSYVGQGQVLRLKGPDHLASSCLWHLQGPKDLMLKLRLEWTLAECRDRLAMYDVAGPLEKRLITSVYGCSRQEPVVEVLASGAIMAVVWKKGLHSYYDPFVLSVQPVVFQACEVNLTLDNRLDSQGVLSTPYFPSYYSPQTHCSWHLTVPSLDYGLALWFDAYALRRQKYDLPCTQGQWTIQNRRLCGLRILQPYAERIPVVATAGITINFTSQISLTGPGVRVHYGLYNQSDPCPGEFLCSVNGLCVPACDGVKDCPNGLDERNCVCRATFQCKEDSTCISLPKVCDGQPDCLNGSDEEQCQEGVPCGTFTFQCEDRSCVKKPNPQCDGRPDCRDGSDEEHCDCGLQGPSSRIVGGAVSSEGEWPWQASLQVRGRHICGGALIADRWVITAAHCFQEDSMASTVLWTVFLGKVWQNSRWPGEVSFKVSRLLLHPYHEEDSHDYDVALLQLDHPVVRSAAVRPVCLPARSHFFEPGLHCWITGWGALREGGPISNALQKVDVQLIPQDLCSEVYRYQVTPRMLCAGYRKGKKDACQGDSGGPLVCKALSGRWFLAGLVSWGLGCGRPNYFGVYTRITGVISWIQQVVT

[2] = target: T1, Transmembrane protease serine 6 (Homo sapiens); assay: Inhibition of human matriptase-2 transfected in HEK cells assessed as residual activity at 5 uM using Boc-Gln-Ala-Arg-AMC as substrate after 20 mins by fluorimetric analysis; format: cell-based; settings: HEK293
[3] = target: T2, Suppressor of tumorigenicity 14 protein (Homo sapiens, UniProt Q9Y5Y6); assay: Inhibition of human matriptase using Boc-Gln-Ala-Arg-AMC as substrate after 20 mins by fluorimetric analysis
T2 sequence (Q9Y5Y6 whole entry): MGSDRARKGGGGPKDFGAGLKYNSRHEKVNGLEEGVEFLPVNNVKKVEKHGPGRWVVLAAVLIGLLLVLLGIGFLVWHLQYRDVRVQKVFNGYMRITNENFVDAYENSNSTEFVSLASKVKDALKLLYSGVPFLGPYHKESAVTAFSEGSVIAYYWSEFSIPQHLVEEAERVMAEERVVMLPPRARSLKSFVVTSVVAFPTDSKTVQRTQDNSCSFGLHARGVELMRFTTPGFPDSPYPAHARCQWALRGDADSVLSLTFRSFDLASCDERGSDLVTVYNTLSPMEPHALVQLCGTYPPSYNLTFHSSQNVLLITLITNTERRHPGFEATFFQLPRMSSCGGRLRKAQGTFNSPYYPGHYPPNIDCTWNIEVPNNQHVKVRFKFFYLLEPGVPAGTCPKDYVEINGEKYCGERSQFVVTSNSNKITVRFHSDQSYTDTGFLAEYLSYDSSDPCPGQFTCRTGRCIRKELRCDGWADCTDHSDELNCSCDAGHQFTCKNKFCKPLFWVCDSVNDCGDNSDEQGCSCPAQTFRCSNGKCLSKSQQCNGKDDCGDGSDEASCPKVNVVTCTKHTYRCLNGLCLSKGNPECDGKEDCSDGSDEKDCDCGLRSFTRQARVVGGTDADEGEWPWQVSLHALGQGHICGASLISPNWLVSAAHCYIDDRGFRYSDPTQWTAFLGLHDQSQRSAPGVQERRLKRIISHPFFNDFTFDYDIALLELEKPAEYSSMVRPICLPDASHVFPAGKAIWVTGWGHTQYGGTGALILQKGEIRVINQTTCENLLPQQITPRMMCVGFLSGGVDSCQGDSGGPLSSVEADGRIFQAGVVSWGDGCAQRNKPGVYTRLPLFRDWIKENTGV

[4] = target: T3, Transmembrane protease serine 6 (Homo sapiens, UniProt Q8IU80); assay: Inhibition of human matriptase-2 transfected in HEK cells using Boc-Gln-Ala-Arg-AMC as substrate after 20 mins by fluorimetric analysis; format: cell-based, HEK293
T3 sequence (Q8IU80 whole entry): T1 sequence (whole entry)

[5] = target: Prothrombin (Homo sapiens, UniProt P00734); assay: Inhibition of human thrombin using Cbz-Gly-Gly-Arg-AMC as substrate after 20 mins by fluorimetric analysis
[6] = target: Coagulation factor X (Bos taurus, UniProt P00743); assay: Inhibition of bovine factor 10a using Boc-Ile-Glu-Gly-Arg-AMC as substrate after 20 mins by fluorimetric analysis
[7] = target: Trypsin (Homo sapiens, UniProt P07477+P07478+P35030); assay: Inhibition of human trypsin using Boc-Gln-Ala-Arg-AMC as substrate after 20 mins by fluorimetric analysis; format: protein assay
[8] = Inhibition of bovine trypsin after 15 to 30 mins; set-up: species or system Bos taurus

Coagulation factor X, sequence (P00743 41-180 limits assumed): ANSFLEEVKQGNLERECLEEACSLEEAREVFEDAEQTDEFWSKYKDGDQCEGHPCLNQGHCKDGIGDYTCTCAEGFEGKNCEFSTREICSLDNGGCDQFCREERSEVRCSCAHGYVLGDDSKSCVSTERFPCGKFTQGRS
Coagulation factor X, sequence (P00743 234-492 limits assumed): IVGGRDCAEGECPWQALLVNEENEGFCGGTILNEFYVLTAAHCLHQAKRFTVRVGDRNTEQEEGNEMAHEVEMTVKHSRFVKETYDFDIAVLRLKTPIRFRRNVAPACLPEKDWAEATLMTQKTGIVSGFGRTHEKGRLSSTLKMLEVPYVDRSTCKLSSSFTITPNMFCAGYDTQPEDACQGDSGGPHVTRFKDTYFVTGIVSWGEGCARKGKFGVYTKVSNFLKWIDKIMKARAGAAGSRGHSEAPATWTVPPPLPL

Structure (SMILES): N=C(N)c1ccc(NC(=O)CCCCCCCCCCC(=O)Nc2ccc(C(=N)N)cc2)cc1
- Activity [1]: 49%

Structure (SMILES): N=C(N)c1ccc(N2CCCN(c3ccc(C(=N)N)cc3)CC2)cc1
- Activity [1]: 15%
- Ki [3]: 397 nM
- Ki [4]: 4390 nM
- Ki [5]: 5300 nM
- Ki [6]: 7830 nM
- Ki [7]: 1900 nM

Structure (SMILES): N=C(N)c1ccc(NCCCNc2ccc(C(=N)N)cc2)cc1
- Activity [1]: 55%

Structure (SMILES): N=C(N)c1ccc(NCCCCCCNc2ccc(C(=N)N)cc2)cc1
- Activity [1]: 21%

Structure (SMILES): CN(CCCN(C)c1ccc(C(=N)N)cc1)c1ccc(C(=N)N)cc1
- Activity [1]: 23%

Structure (SMILES): N=C(N)c1ccc(N2CCN(c3ccc(C(=N)N)cc3)CC2)cc1
- Activity [1]: 5.3%
- Ki [3]: 719 nM
- Ki [4]: 1160 nM
- Ki [5]: 10100 nM
- Ki [6]: 20000 nM
- Ki [7]: 513 nM

Structure (SMILES): N=C(N)c1ccc(NCCCCNc2ccc(C(=N)N)cc2)cc1
- Activity [1]: 27%

Structure (SMILES): N=C(N)c1ccc(OCc2ccccc2COc2ccc(C(=N)N)cc2)cc1
- Activity [1]: 19%
- Ki [3]: 2280 nM
- Ki [4]: 5200 nM
- Ki [5]: 279 nM
- Ki [6]: 13700 nM
- Ki [7]: 221 nM

Structure (SMILES): N=C(N)c1ccc(COc2ccccc2OCc2ccc(C(=N)N)cc2)cc1
- Activity [1]: 46%

Structure (SMILES): N=C(N)c1ccc(NCCCCCCCCNc2ccc(C(=N)N)cc2)cc1
- Activity [1]: 8.6%
- Ki [3]: 526 nM
- Ki [4]: 1640 nM
- Ki [5]: 317 nM
- Ki [6]: 1290 nM
- Ki [7]: 192 nM

Structure (SMILES): N=C(N)c1ccc(OCc2ccc(COc3ccc(C(=N)N)cc3)cc2)cc1
- Activity [1]: 16%
- Ki [3]: 816 nM
- Ki [4]: 5700 nM
- Ki [5]: 1160 nM
- Ki [6]: 327 nM
- Ki [7]: 316 nM
- Ki [8]: 1300 nM

Structure (SMILES): N=C(NC1CC1)c1ccc(N2CCCN(c3ccc(C(=N)NC4CC4)cc3)CC2)cc1
- Activity [1]: 45%

Structure (SMILES): N=C(N)c1ccc(NCCNc2ccc(C(=N)N)cc2)cc1
- Activity [1]: 23%

Structure (SMILES): N=C(N)c1ccc(NC(=O)CCCCCCCCC(=O)Nc2ccc(C(=N)N)cc2)cc1
- Activity [1]: 33%

Structure (SMILES): CN(CCNc1ccc(C(=N)N)cc1)c1ccc(C(=N)N)cc1
- Activity [1]: 21%

Structure (SMILES): N=C(N)c1ccc(NCCCCCCCNc2ccc(C(=N)N)cc2)cc1
- Activity [1]: 16%
- Ki [3]: 558 nM
- Ki [4]: 3680 nM
- Ki [5]: 499 nM
- Ki [6]: 391 nM
- Ki [7]: 244 nM

Structure (SMILES): N=C(N)c1ccc(OCc2cccc(COc3ccc(C(=N)N)cc3)c2)cc1
- Activity [1]: 17%

Second part, the compound after the results:

- Activity [1]: > 50%
- Activity [2]: 93%
Structure (SMILES): N=C(N)c1ccc(NC(=O)c2ccc(C(=O)Nc3ccc(C(=N)N)cc3)cc2)cc1

- Activity [1]: 40%
Structure (SMILES): N=C(N)c1ccc(NC(=O)CCC(=O)Nc2ccc(C(=N)N)cc2)cc1

- Activity [1]: 78%
Structure (SMILES): N=C(N)c1ccc(NC(=O)CCCCC(=O)Nc2cccc(C(=N)N)c2)cc1

- Activity [1]: 62%
Structure (SMILES): N=C(N)c1ccc(NC(=O)CCCCCCC(=O)Nc2ccc(C(=N)N)cc2)cc1

- Activity [1]: 68%
Structure (SMILES): N=C(N)c1ccc(NC(=O)CCCC(=O)Nc2ccc(C(=N)N)cc2)cc1

- Activity [1]: 32%
Structure (SMILES): N=C(N)c1ccc(NC(=O)c2cccc(C(=O)Nc3ccc(C(=N)N)cc3)c2)cc1

- Activity [1]: 63%
Structure (SMILES): N=C(N)c1ccc(NC(=O)CCCCCC(=O)Nc2ccc(C(=N)N)cc2)cc1

- Activity [1]: 57%
Structure (SMILES): N=C(N)c1ccc(NC(=O)CCCCC(=O)Nc2ccc(C(=N)N)cc2)cc1

- Activity [1]: 49%
Structure (SMILES): N=C(N)c1ccc(NC(=O)CCCCCCCC(=O)Nc2ccc(C(=N)N)cc2)cc1

- Activity [1]: 17%
- Ki [3]: 492 nM
- Ki [4]: 6230 nM
- Ki [5]: 15800 nM
- Ki [6]: 52300 nM
- Ki [7]: 1420 nM
Structure (SMILES): N=C(N)c1ccc(NC(=O)C(=O)Nc2ccc(C(=N)N)cc2)cc1
